The test system of the data set is CCRIS mutagenicity, Ames/micronucleus/aberration tests. As to the kind of experiment: CCRIS mutagenicity studies.
[1] abbreviates: Test System: AMES SALMONELLA TYPHIMURIUM, Strain/Indicator: TA98, Metabolic Activation: NONE, Method: STANDARD PLATE.
[2] abbreviates: Test System: AMES SALMONELLA TYPHIMURIUM, Strain/Indicator: TA100, Metabolic Activation: NONE, Method: STANDARD PLATE.
Where [3] appears, read: Test System: AMES SALMONELLA TYPHIMURIUM, Strain/Indicator: TA98, Metabolic Activation: NONE, Method: PREINCUBATION
[4] abbreviates: Test System: AMES SALMONELLA TYPHIMURIUM, Strain/Indicator: TA98, Metabolic Activation: HAMSTER, LIVER, S-9, AROCLOR 1254 (10%), Method: PREINCUBATION
Where [5] appears, read: Test System: AMES SALMONELLA TYPHIMURIUM, Strain/Indicator: TA98, Metabolic Activation: RAT, LIVER, S-9, AROCLOR 1254 (10%), Method: PREINCUBATION
Where [6] appears, read: Test System: AMES SALMONELLA TYPHIMURIUM, Strain/Indicator: TA100, Metabolic Activation: HAMSTER, LIVER, S-9, AROCLOR 1254 (10%), Method: PREINCUBATION
The mark [7] stands for this setting: Test System: AMES SALMONELLA TYPHIMURIUM, Strain/Indicator: TA100, Metabolic Activation: NONE, Method: PREINCUBATION
[8] abbreviates: Test System: AMES SALMONELLA TYPHIMURIUM, Strain/Indicator: TA100, Metabolic Activation: RAT, LIVER, S-9, AROCLOR 1254 (10%), Method: PREINCUBATION
[9] abbreviates: Test System: AMES SALMONELLA TYPHIMURIUM, Strain/Indicator: TA1535, Metabolic Activation: HAMSTER, LIVER, S-9, AROCLOR 1254 (10%), Method: PREINCUBATION
[10] abbreviates: Test System: AMES SALMONELLA TYPHIMURIUM, Strain/Indicator: TA1535, Metabolic Activation: NONE, Method: PREINCUBATION
Where [11] appears, read: Test System: AMES SALMONELLA TYPHIMURIUM, Strain/Indicator: TA1535, Metabolic Activation: RAT, LIVER, S-9, AROCLOR 1254 (10%), Method: PREINCUBATION

SMILES strings stand for the structures. Activity calls are given as the source filed them. How the calls were made is not given here.

On to `c1ccc2c(c1)ncc1cnc3ccccc3c12`, for which the mutagenic call is, setting by setting: under setting [1], “inactive; negative”; (Test System: AMES SALMONELLA TYPHIMURIUM, Strain/Indicator: TA98, Metabolic Activation: RAT LIVER S-9, AROCLOR 1254, Method: STANDARD PLATE) “inactive; negative”; (Test System: E.COLI, Strain/Indicator: WP2, Metabolic Activation: NONE, Method: SPOT TEST) “inactive; negative”; (Test System: E.COLI, Strain/Indicator: WP2 UVRA, Metabolic Activation: NONE, Method: STANDARD PLATE) “inactive; negative”; (Test System: E.COLI, Strain/Indicator: WP2 UVRA, Metabolic Activation: R, L, S-9, AROCLOR 1254, Method: STANDARD PLATE) “inactive; negative”; (Test System: ESCHERICHIA COLI, Strain/Indicator: WP2 UVR A, Metabolic Activation: NONE, Method: STANDARD PLATE) “inactive; negative”. In addition, the mutagenic call (Test System: ESCHERICHIA COLI, Strain/Indicator: WP2 UVR A, Metabolic Activation: RAT LIVER S-9, AROCLOR 1254, Method: STANDARD PLATE) is “inactive; negative”.
In the case of `CCOC(=O)CNC(=O)C=[N+]=[N-]`, the mutagenic call reads like this: (Test System: AMES SALMONELLA TYPHIMURIUM, Strain/Indicator: TA1535, Metabolic Activation: NONE, Method: STANDARD PLATE) “active; positive”; (Test System: UDS RODENT PRIMARY CELLS, Strain/Indicator: THY INCORP (NON-S-PHASE), Metabolic Activation: NONE, Method: AUTORADIOGRAPHY) “active; positive”.
For `O=C(Nc1cccc(Br)c1)c1csc([N+](=O)[O-])c1`, the mutagenic call under setting [1] is “active; positive” and the mutagenic call under setting [2] is “active; positive”.
`O=[N+]([O-])c1ccc(-c2ccccc2)cc1`: the mutagenic call was “inactive; negative” (Test System: AMES SALMONELLA TYPHIMURIUM, Strain/Indicator: TA98(1,8-DNP6), Metabolic Activation: NONE); “active; positive” (Test System: AMES SALMONELLA TYPHIMURIUM, Strain/Indicator: TA98(1,8-DNP6), Metabolic Activation: NONE, Method: STANDARD PLATE); “inactive; negative” (Test System: AMES SALMONELLA TYPHIMURIUM, Strain/Indicator: TA98(1,8-DNP6), Metabolic Activation: RAT, LIVER, S-9, AROCLOR 1254); “inactive; negative” (Test System: AMES SALMONELLA TYPHIMURIUM, Strain/Indicator: TA98(NR), Metabolic Activation: NONE); “inactive; negative” (Test System: AMES SALMONELLA TYPHIMURIUM, Strain/Indicator: TA98(NR), Metabolic Activation: NONE, Method: STANDARD PLATE); “inactive; negative” (Test System: AMES SALMONELLA TYPHIMURIUM, Strain/Indicator: TA98(NR), Metabolic Activation: RAT, LIVER, S-9, AROCLOR 1254). Besides, the mutagenic call (Test System: AMES SALMONELLA TYPHIMURIUM, Strain/Indicator: TA98, Metabolic Activation: NONE) was “inactive; negative”; the mutagenic call under setting [3] was “active; positive”; the mutagenic call (Test System: AMES SALMONELLA TYPHIMURIUM, Strain/Indicator: TA98, Metabolic Activation: RAT, LIVER, S-9, AROCLOR 1254) was “inactive; negative”; the mutagenic call (Test System: AMES SALMONELLA TYPHIMURIUM, Strain/Indicator: TA98, Metabolic Activation: RAT, LIVER, S-9, PCB (10%), Method: PREINCUBATION) is “active; positive”; the mutagenic call (Test System: AMES SALMONELLA TYPHIMURIUM, Strain/Indicator: TA98, Metabolic Activation: RAT, LIVER, S-9, PCB, Method: PREINCUBATION) is “active; positive”; the mutagenic call (Test System: AMES SALMONELLA TYPHIMURIUM, Strain/Indicator: TA98, Metabolic Activation: RAT, LIVER, S-100 (CYTOSOL), Method: PREINCUBATION) is “active; positive”. The mutagenic call by setting is: (Test System: AMES SALMONELLA TYPHIMURIUM, Strain/Indicator: TA98, Metabolic Activation: RAT, LIVER, S-100 (MICROSOMES), Method: PREINCUBATION) “active; positive”; (Test System: AMES SALMONELLA TYPHIMURIUM, Strain/Indicator: TA98, Metabolic Activation: S-9, Method: STANDARD PLATE) “active; positive”; (Test System: AMES SALMONELLA TYPHIMURIUM, Strain/Indicator: TA100(NR), Metabolic Activation: NONE) “inactive; negative”; (Test System: AMES SALMONELLA TYPHIMURIUM, Strain/Indicator: TA100(NR), Metabolic Activation: RAT, LIVER, S-9, AROCLOR 1254) “inactive; negative”; (Test System: AMES SALMONELLA TYPHIMURIUM, Strain/Indicator: TA100, Metabolic Activation: NONE) “inactive; negative”; under setting [2], “active; positive”. The mutagenic call was “inactive; negative” (Test System: AMES SALMONELLA TYPHIMURIUM, Strain/Indicator: TA100, Metabolic Activation: RAT, LIVER, S-9, AROCLOR 1254); “active; positive” (Test System: AMES SALMONELLA TYPHIMURIUM, Strain/Indicator: TA100, Metabolic Activation: S-9, Method: STANDARD PLATE); “inactive; negative” (Test System: AMES SALMONELLA TYPHIMURIUM, Strain/Indicator: TA104, Metabolic Activation: NONE); “inactive; negative” (Test System: AMES SALMONELLA TYPHIMURIUM, Strain/Indicator: TA104, Metabolic Activation: RAT, LIVER, S-9, AROCLOR 1254); “inactive; negative” (Test System: CHINESE HAMSTER OVARY, Strain/Indicator: CHO-K1-BH4 (HGPRT), Metabolic Activation: NONE, Method: SUSPENSION/PLATE); “inactive; negative” (Test System: CHINESE HAMSTER OVARY, Strain/Indicator: CHO-K1-BH4 (HGPRT), Metabolic Activation: RAT, LIVER, S-9, AROCLOR, Method: SUSPENSION/PLATE). Where the note is “Test System: UDS RAT HEPATOCYTES, Strain/Indicator: THY INCORP, Metabolic Activation: NONE, Method: AUTORADIOGRAPHY (SERUM-FREE MEDIA)”, the mutagenic call is “active; positive”.
Take `O=[N+]([O-])c1ccc(Nc2ccc(O)cc2)c([N+](=O)[O-])c1`: the mutagenic call (Test System: AMES SALMONELLA TYPHIMURIUM, Strain/Indicator: TA97, Metabolic Activation: HAMSTER, LIVER, S-9, AROCLOR 1254 (10%), Method: PREINCUBATION) was “active; positive”; the mutagenic call (Test System: AMES SALMONELLA TYPHIMURIUM, Strain/Indicator: TA97, Metabolic Activation: NONE, Method: PREINCUBATION) is “inactive; negative”; the mutagenic call (Test System: AMES SALMONELLA TYPHIMURIUM, Strain/Indicator: TA97, Metabolic Activation: RAT, LIVER, S-9, AROCLOR 1254 (10%), Method: PREINCUBATION) is “inactive; negative”; the mutagenic call under setting [4] was “active; positive”; the mutagenic call under setting [3] was “active; positive”; the mutagenic call under setting [5] was “active; positive”. Besides, the mutagenic call was “active; positive” under setting [6]; “active; positive” under setting [7]; “active; positive” under setting [8]; “inactive; negative” under setting [9]; “inactive; negative” under setting [10]; “inactive; negative” under setting [11].
With `CC(=O)[O][Hg][c]1ccccc1`, the mutagenic call reads like this: under setting [4], “inactive; negative”; under setting [3], “inactive; negative”; under setting [5], “inactive; negative”; under setting [6], “inactive; negative”; under setting [7], “inactive; negative”; under setting [8], “inactive; negative”. For the same compound, the mutagenic call was “inactive; negative” under setting [9]; “inactive; negative” under setting [10]; “inactive; negative” under setting [11]; “inactive; negative” (Test System: AMES SALMONELLA TYPHIMURIUM, Strain/Indicator: TA1537, Metabolic Activation: HAMSTER, LIVER, S-9, AROCLOR 1254 (10%), Method: PREINCUBATION); “inactive; negative” (Test System: AMES SALMONELLA TYPHIMURIUM, Strain/Indicator: TA1537, Metabolic Activation: NONE, Method: PREINCUBATION); “inactive; negative” (Test System: AMES SALMONELLA TYPHIMURIUM, Strain/Indicator: TA1537, Metabolic Activation: RAT, LIVER, S-9, AROCLOR 1254 (10%), Method: PREINCUBATION).

(Values after PubChem BioAssay AID1259407 (Chemical Carcinogenesis Research Information System (CCRIS), 2018).)
